According to patent publication US7118895B2, “Process for producing aglycon by using diglycosidase and flavor-improved food containing the aglycon and converting agent to be used in the process” (Amano Enzyme Inc., priority 2000, dated 2006):

Test system: Crude diglycosidase
Assay: Examination of pH in the conversion into isoflavone aglycons by diglycosidase using soybean materials
Type: biochemical, Penicillium multicolor IAM7153
Conditions: for Decomposition efficiency of glycitin family in roasted soy flour / Decomposition efficiency of glycitin family in soymilk: 55° C.
How it was run: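 Conversion of glycosides to isoflavone aglycons was followed by HPLC after crude diglycosidase (1.88 AU/mL enzyme solution) acted at 55° C for up to 6 h on four soy materials, 50 mg each, held at pH 2–11.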

[1] = pH6.6, heat treatment of enzyme: no, reaction time 0 h
[2] = pH6.6, heat treatment of enzyme: no, reaction time 1 h
[3] = pH6.6, heat treatment of enzyme: no, reaction time 3 h
[4] = pH6.6, heat treatment of enzyme: no, reaction time 6 h
[5] = pH6.6, heat treatment of enzyme: yes, reaction time 6 h

- Decomposition efficiency of glycitin family in concentrated soybean protein (pH1.6, heat treatment of enzyme: no, reaction time 0 h): 52.3%
- Decomposition efficiency of glycitin family in concentrated soybean protein (pH1.6, heat treatment of enzyme: no, reaction time 1 h): 52.9%
- Decomposition efficiency of glycitin family in concentrated soybean protein (pH1.6, heat treatment of enzyme: no, reaction time 3 h): 54.3%
- Decomposition efficiency of glycitin family in concentrated soybean protein (pH1.6, heat treatment of enzyme: no, reaction time 6 h): 56.1%
- Decomposition efficiency of glycitin family in concentrated soybean protein (pH1.6, heat treatment of enzyme: yes, reaction time 6 h): 57.9%
- Decomposition efficiency of glycitin family in roasted soy flour (pH2, heat treatment of enzyme no, reaction time 0 h): 56.8
- Decomposition efficiency of glycitin family in roasted soy flour (pH2, heat treatment of enzyme no, reaction time 1 h): 56.6
- Decomposition efficiency of glycitin family in roasted soy flour (pH2, heat treatment of enzyme no, reaction time 3 h): 56.3
- Decomposition efficiency of glycitin family in roasted soy flour (pH2, heat treatment of enzyme no, reaction time 6 h): 54.4
- Decomposition efficiency of glycitin family in roasted soy flour (pH2, heat treatment of enzyme yes, reaction time 6 h): 54.4
- Decomposition efficiency of glycitin family in soymilk (pH2.3, heat treatment of enzyme no, reaction time 0 h): 50.2
- Decomposition efficiency of glycitin family in soymilk (pH2.3, heat treatment of enzyme no, reaction time 1 h): not detected
- Decomposition efficiency of glycitin family in soymilk (pH2.3, heat treatment of enzyme no, reaction time 3 h): not detected
- Decomposition efficiency of glycitin family in soymilk (pH2.3, heat treatment of enzyme no, reaction time 6 h): not detected
- Decomposition efficiency of glycitin family in soymilk (pH2.3, heat treatment of enzyme yes, reaction time 6 h): 51.7
- Decomposition efficiency of glycitin family in defatted soybean (pH2.6, heat treatment of enzyme: no, reaction time 0 h): not detected
- Decomposition efficiency of glycitin family in defatted soybean (pH2.6, heat treatment of enzyme: no, reaction time 1 h): not detected
- Decomposition efficiency of glycitin family in defatted soybean (pH2.6, heat treatment of enzyme: no, reaction time 3 h): not detected
- Decomposition efficiency of glycitin family in defatted soybean (pH2.6, heat treatment of enzyme: no, reaction time 6 h): not detected
- Decomposition efficiency of glycitin family in defatted soybean (pH2.6, heat treatment of enzyme: yes, reaction time 6 h): not detected
- Decomposition efficiency of glycitin family in concentrated soybean protein (pH2.7, heat treatment of enzyme: no, reaction time 0 h): 52.3%
- Decomposition efficiency of glycitin family in concentrated soybean protein (pH2.7, heat treatment of enzyme: no, reaction time 1 h): 38.0%
- Decomposition efficiency of glycitin family in concentrated soybean protein (pH2.7, heat treatment of enzyme: no, reaction time 3 h): 37.2%
- Decomposition efficiency of glycitin family in concentrated soybean protein (pH2.7, heat treatment of enzyme: no, reaction time 6 h): 33.7%
- Decomposition efficiency of glycitin family in concentrated soybean protein (pH2.7, heat treatment of enzyme: yes, reaction time 6 h): 52.7%
- Decomposition efficiency of glycitin family in roasted soy flour (pH3, heat treatment of enzyme no, reaction time 0 h): 56.8
- Decomposition efficiency of glycitin family in roasted soy flour (pH3, heat treatment of enzyme no, reaction time 1 h): not detected
- Decomposition efficiency of glycitin family in roasted soy flour (pH3, heat treatment of enzyme no, reaction time 3 h): not detected
- Decomposition efficiency of glycitin family in roasted soy flour (pH3, heat treatment of enzyme no, reaction time 6 h): not detected
- Decomposition efficiency of glycitin family in roasted soy flour (pH3, heat treatment of enzyme yes, reaction time 6 h): 55.1
- Decomposition efficiency of glycitin family in defatted soybean (pH3.4, heat treatment of enzyme: no, reaction time 0 h): not detected
- Decomposition efficiency of glycitin family in defatted soybean (pH3.4, heat treatment of enzyme: no, reaction time 1 h): not detected
- Decomposition efficiency of glycitin family in defatted soybean (pH3.4, heat treatment of enzyme: no, reaction time 3 h): not detected
- Decomposition efficiency of glycitin family in defatted soybean (pH3.4, heat treatment of enzyme: no, reaction time 6 h): not detected
- Decomposition efficiency of glycitin family in defatted soybean (pH3.4, heat treatment of enzyme: yes, reaction time 6 h): not detected
- Decomposition efficiency of glycitin family in soymilk (pH3.5, heat treatment of enzyme no, reaction time 0 h): 50.2
- Decomposition efficiency of glycitin family in soymilk (pH3.5, heat treatment of enzyme no, reaction time 1 h): not detected
- Decomposition efficiency of glycitin family in soymilk (pH3.5, heat treatment of enzyme no, reaction time 3 h): not detected
- Decomposition efficiency of glycitin family in soymilk (pH3.5, heat treatment of enzyme no, reaction time 6 h): not detected
- Decomposition efficiency of glycitin family in soymilk (pH3.5, heat treatment of enzyme yes, reaction time 6 h): 54.2
- Decomposition efficiency of glycitin family in concentrated soybean protein (pH3.7, heat treatment of enzyme: no, reaction time 0 h): 52.4%
- Decomposition efficiency of glycitin family in concentrated soybean protein (pH3.7, heat treatment of enzyme: no, reaction time 1 h): not detected
- Decomposition efficiency of glycitin family in concentrated soybean protein (pH3.7, heat treatment of enzyme: no, reaction time 3 h): not detected
- Decomposition efficiency of glycitin family in concentrated soybean protein (pH3.7, heat treatment of enzyme: no, reaction time 6 h): not detected
- Decomposition efficiency of glycitin family in concentrated soybean protein (pH3.7, heat treatment of enzyme: yes, reaction time 6 h): 52.4%
- Decomposition efficiency of glycitin family in roasted soy flour (pH4, heat treatment of enzyme no, reaction time 0 h): 56.6
- Decomposition efficiency of glycitin family in roasted soy flour (pH4, heat treatment of enzyme no, reaction time 1 h): not detected
- Decomposition efficiency of glycitin family in roasted soy flour (pH4, heat treatment of enzyme no, reaction time 3 h): not detected
- Decomposition efficiency of glycitin family in roasted soy flour (pH4, heat treatment of enzyme no, reaction time 6 h): not detected
- Decomposition efficiency of glycitin family in roasted soy flour (pH4, heat treatment of enzyme yes, reaction time 6 h): 55.1
- Decomposition efficiency of glycitin family in soymilk (pH4.8, heat treatment of enzyme no, reaction time 0 h): 50.7
- Decomposition efficiency of glycitin family in soymilk (pH4.8, heat treatment of enzyme no, reaction time 1 h): not detected
- Decomposition efficiency of glycitin family in soymilk (pH4.8, heat treatment of enzyme no, reaction time 3 h): not detected
- Decomposition efficiency of glycitin family in soymilk (pH4.8, heat treatment of enzyme no, reaction time 6 h): not detected
- Decomposition efficiency of glycitin family in soymilk (pH4.8, heat treatment of enzyme yes, reaction time 6 h): 54.3
- Decomposition efficiency of glycitin family in defatted soybean (pH4.8, heat treatment of enzyme: no, reaction time 0 h): not detected
- Decomposition efficiency of glycitin family in defatted soybean (pH4.8, heat treatment of enzyme: no, reaction time 1 h): not detected
- Decomposition efficiency of glycitin family in defatted soybean (pH4.8, heat treatment of enzyme: no, reaction time 3 h): not detected
- Decomposition efficiency of glycitin family in defatted soybean (pH4.8, heat treatment of enzyme: no, reaction time 6 h): not detected
- Decomposition efficiency of glycitin family in defatted soybean (pH4.8, heat treatment of enzyme: yes, reaction time 6 h): not detected
- Decomposition efficiency of glycitin family in roasted soy flour (pH5, heat treatment of enzyme no, reaction time 0 h): 56.6
- Decomposition efficiency of glycitin family in roasted soy flour (pH5, heat treatment of enzyme no, reaction time 1 h): not detected
- Decomposition efficiency of glycitin family in roasted soy flour (pH5, heat treatment of enzyme no, reaction time 3 h): not detected
- Decomposition efficiency of glycitin family in roasted soy flour (pH5, heat treatment of enzyme no, reaction time 6 h): not detected
- Decomposition efficiency of glycitin family in roasted soy flour (pH5, heat treatment of enzyme yes, reaction time 6 h): 55.4
- Decomposition efficiency of glycitin family in concentrated soybean protein (pH5.1, heat treatment of enzyme: no, reaction time 0 h): 52.4%
- Decomposition efficiency of glycitin family in concentrated soybean protein (pH5.1, heat treatment of enzyme: no, reaction time 1 h): 4.1%
- Decomposition efficiency of glycitin family in concentrated soybean protein (pH5.1, heat treatment of enzyme: no, reaction time 3 h): not detected
- Decomposition efficiency of glycitin family in concentrated soybean protein (pH5.1, heat treatment of enzyme: no, reaction time 6 h): not detected
- Decomposition efficiency of glycitin family in concentrated soybean protein (pH5.1, heat treatment of enzyme: yes, reaction time 6 h): 52.3%
- Decomposition efficiency of glycitin family in defatted soybean (pH5.4, heat treatment of enzyme: no, reaction time 0 h): not detected
- Decomposition efficiency of glycitin family in defatted soybean (pH5.4, heat treatment of enzyme: no, reaction time 1 h): not detected
- Decomposition efficiency of glycitin family in defatted soybean (pH5.4, heat treatment of enzyme: no, reaction time 3 h): not detected
- Decomposition efficiency of glycitin family in defatted soybean (pH5.4, heat treatment of enzyme: no, reaction time 6 h): not detected
- Decomposition efficiency of glycitin family in defatted soybean (pH5.4, heat treatment of enzyme: yes, reaction time 6 h): not detected
- Decomposition efficiency of glycitin family in soymilk (pH6.2, heat treatment of enzyme no, reaction time 0 h): 50.7
- Decomposition efficiency of glycitin family in soymilk (pH6.2, heat treatment of enzyme no, reaction time 1 h): not detected
- Decomposition efficiency of glycitin family in soymilk (pH6.2, heat treatment of enzyme no, reaction time 3 h): not detected
- Decomposition efficiency of glycitin family in soymilk (pH6.2, heat treatment of enzyme no, reaction time 6 h): not detected
- Decomposition efficiency of glycitin family in soymilk (pH6.2, heat treatment of enzyme yes, reaction time 6 h): 54.2
- Decomposition efficiency of glycitin family in roasted soy flour (pH6.5, heat treatment of enzyme no, reaction time 0 h): 55.9
- Decomposition efficiency of glycitin family in roasted soy flour (pH6.5, heat treatment of enzyme no, reaction time 1 h): not detected
- Decomposition efficiency of glycitin family in roasted soy flour (pH6.5, heat treatment of enzyme no, reaction time 3 h): not detected
- Decomposition efficiency of glycitin family in roasted soy flour (pH6.5, heat treatment of enzyme no, reaction time 6 h): not detected
- Decomposition efficiency of glycitin family in roasted soy flour (pH6.5, heat treatment of enzyme yes, reaction time 6 h): 54.8
- Decomposition efficiency of glycitin family in concentrated soybean protein [1]: 52.2%
- Decomposition efficiency of glycitin family in defatted soybean [1]: not detected
- Decomposition efficiency of glycitin family in concentrated soybean protein [2]: 22.6%
- Decomposition efficiency of glycitin family in defatted soybean [2]: not detected
- Decomposition efficiency of glycitin family in concentrated soybean protein [3]: 6.9%
- Decomposition efficiency of glycitin family in defatted soybean [3]: not detected
- Decomposition efficiency of glycitin family in concentrated soybean protein [4]: 2.0%
- Decomposition efficiency of glycitin family in defatted soybean [4]: not detected
- Decomposition efficiency of glycitin family in concentrated soybean protein [5]: 53.3%
- Decomposition efficiency of glycitin family in defatted soybean [5]: not detected
- Decomposition efficiency of glycitin family in soymilk (pH7.2, heat treatment of enzyme no, reaction time 0 h): 50.0
- Decomposition efficiency of glycitin family in soymilk (pH7.2, heat treatment of enzyme no, reaction time 1 h): not detected
- Decomposition efficiency of glycitin family in soymilk (pH7.2, heat treatment of enzyme no, reaction time 3 h): not detected
- Decomposition efficiency of glycitin family in soymilk (pH7.2, heat treatment of enzyme no, reaction time 6 h): not detected
- Decomposition efficiency of glycitin family in soymilk (pH7.2, heat treatment of enzyme yes, reaction time 6 h): 56.9
- Decomposition efficiency of glycitin family in defatted soybean (pH7.8, heat treatment of enzyme: no, reaction time 0 h): not detected
- Decomposition efficiency of glycitin family in defatted soybean (pH7.8, heat treatment of enzyme: no, reaction time 1 h): not detected
- Decomposition efficiency of glycitin family in defatted soybean (pH7.8, heat treatment of enzyme: no, reaction time 3 h): not detected
- Decomposition efficiency of glycitin family in defatted soybean (pH7.8, heat treatment of enzyme: no, reaction time 6 h): not detected
- Decomposition efficiency of glycitin family in defatted soybean (pH7.8, heat treatment of enzyme: yes, reaction time 6 h): not detected
- Decomposition efficiency of glycitin family in roasted soy flour (pH8.5, heat treatment of enzyme no, reaction time 0 h): 59.4
- Decomposition efficiency of glycitin family in roasted soy flour (pH8.5, heat treatment of enzyme no, reaction time 1 h): 39.4
- Decomposition efficiency of glycitin family in roasted soy flour (pH8.5, heat treatment of enzyme no, reaction time 3 h): 29.3
- Decomposition efficiency of glycitin family in roasted soy flour (pH8.5, heat treatment of enzyme no, reaction time 6 h): 22.4
- Decomposition efficiency of glycitin family in roasted soy flour (pH8.5, heat treatment of enzyme yes, reaction time 6 h): 59.2
- Decomposition efficiency of glycitin family in concentrated soybean protein (pH8.6, heat treatment of enzyme: no, reaction time 0 h): 54.9%
- Decomposition efficiency of glycitin family in concentrated soybean protein (pH8.6, heat treatment of enzyme: no, reaction time 1 h): 51.6%
- Decomposition efficiency of glycitin family in concentrated soybean protein (pH8.6, heat treatment of enzyme: no, reaction time 3 h): 45.9%
- Decomposition efficiency of glycitin family in concentrated soybean protein (pH8.6, heat treatment of enzyme: no, reaction time 6 h): 36.7%
- Decomposition efficiency of glycitin family in concentrated soybean protein (pH8.6, heat treatment of enzyme: yes, reaction time 6 h): 56.8%
- Decomposition efficiency of glycitin family in soymilk (pH11.6, heat treatment of enzyme no, reaction time 0 h): 54.3
- Decomposition efficiency of glycitin family in soymilk (pH11.6, heat treatment of enzyme no, reaction time 1 h): not detected
- Decomposition efficiency of glycitin family in soymilk (pH11.6, heat treatment of enzyme no, reaction time 3 h): not detected
- Decomposition efficiency of glycitin family in soymilk (pH11.6, heat treatment of enzyme no, reaction time 6 h): not detected
- Decomposition efficiency of glycitin family in soymilk (pH11.6, heat treatment of enzyme yes, reaction time 6 h): 59.7
Compound: COc1cc2c(=O)c(-c3ccc(O)cc3)coc2cc1O[C@@H]1O[C@H](CO)[C@@H](O)[C@H](O)[C@H]1O [glycitin]
